Test results taken from patent US9452170B2, “Compounds and methods for inducing chondrogenesis” (The California Institute for Biomedical Research, priority 2013, dated 2016).

Legend:
Human MSCs = experiment: Human chondrocyte differentiation assay (immunostaining for type II collagen, Sox9 and COMP); assay type: cell-based; conditions: 168 h, compound 1 μM, 7 days, vs DMSO vehicle, read-out: Biological Activity (increase in staining intensity compared to vehicle control)
Procedure: Human MSCs (50,000) were plated into each well of a 96-well plate and cultured overnight. Compounds (in DMSO solution) were added to the cells at a final concentration of 1 μM, and the cells were cultured for 7 days at 5% CO2, 37° C. The cells were fixed with 10% formalin solution at room temperature for 10 min, and immunostained using antibodies specific for type II collagen (Abcam), Sox9 (Santa Cruz) and cartilage oligomeric matrix protein (COMP, Santa Cruz), and fluorescently labeled secondary antibodies (Li-Cor). The total intensity of the staining was measured using Oddyssey CLx imaging system (Li-Cor). Vehicle (DMSO) was used as control to determine the basal level of chondrocyte differentiation. […] Representative data are shown in Table 1 [A: >50% increase in staining intensity compared to vehicle control; B: 30-50% increase in staining intensity compared to vehicle control].

[1] = Quantitation of compounds in rat knee joint extract after intra-articular injection (LC-MS/MS); assay type: in vivo; conditions: knee joint extract (whole joint, acetonitrile extract), other: intra-articular injection, 30 μL of 100 μM solution, 30 μL of 100 μM intra-articular, read-out: Concentration observed in extract; for concentration at 0 h: T = 0 h; for concentration at 0.5 h: T = 0.5 h; for concentration at 1 h: T = 1 h; for concentration at 2 h: T = 2 h
Procedure: LC-MS/MS analysis for Chondrogenesis compounds were performed using an API 3000 equipped with an Agilent 1100 HPLC and a Leap Technologies autosampler. A HPLC Phenomenex 5 micron, 100 A Luna C18 (2) analytical column with dimensions of 2.0×50 mm (Part No. 00B-4252-B0) at a temperature of 30 C, flow rate of 0.6 mL/min, injection volume of 10 uL, and a 6.0 min run time was used. Mobile phase A1 was 0.1% formic acid in water and Mobile phase B1 was 0.1% formic acid in acetonitrile. The gradient was 90% A1/10% B1 at time 0; 90% A1/10% B1 at time 1.0 min; 10% A1/90% B1 at time 2.0 min; 10% A1/90% B1 at time 4.0 min; 90% A1/10% B1 at time 4.10 min; 90% A1/10% B1 at time 6.0 min. Analytes and internal standard quantitation were performed using Multiple Reaction Monitoring (MRM) quantitation method. Listed below are specific methods used to dose and measure exposure in plasma and the observed concentration in joint extract.
Calibration standard curve was prepared by serial dilution of a concentrated, spike solution of the compound in internal standard diluents. Internal standard diluent was prepared by dissolving the internal standard compound at a certain concentration in acetonitrile. Rat knee joint samples for each time points were individually crushed and transferred into each centrifuge tube and added 1.0-mL of internal standard diluent. Each centrifuge tube was vortexed and centrifuged for 30 minutes. From each tube, supernatant was removed and injected onto the column for analysis. In addition, plasma samples were obtained by retro-orbital bleeds into heparin coated tubes and stored at −80 C and later processed by analogy to the protocol described above for rat plasma samples.
30 μL of 100 μM compound solution (PBS with 0.1% DMSO) was injected into the intra-articular space of the right hinder knee of each animal. The animals were euthanized at indicated time points (0 hr, 0.5 hr, 1 hr, 2 hr, 4 hr and 6 hr). Four animals were used for each timepoint. The injected knee joints were harvested, flash freeze in liquid nitrogen. The whole joints were grounded into powder while frozen, mixed with 1 mL internal standard-containing acetonitrile, incubated at 4° C. overnight, vortexed and centrifuged for 30 min. The supernatant from each sample was analyzed using LC-MS/MS. Data shown in Table 2 indicates the observed concentration in knee extract. ND=Not determined.

SMILES: O=C(Nc1ccccc1S(=O)(=O)N1CCOCC1)c1ccc(F)cc1 [Compound 123]
- activation at 1 µM (Human MSCs): > 50%
- concentration at 0 h [1]: 4430 ng/mL
- concentration at 0.5 h [1]: 1100 ng/mL
- concentration at 1 h [1]: 741 ng/mL
- concentration at 2 h [1]: 338 ng/mL
- concentration at 4 h ([1]; T = 4 h): 38 ng/mL
- concentration at 6 h ([1]; T = 6 h): 0 ng/mL

SMILES: COCCc1ccc(NC(=O)c2ccccc2C(=O)O)cc1 [Compound 21]
- activation at 1 µM (Human MSCs): > 50%
- concentration at 0 h [1]: 434 ng/mL
- concentration at 0.5 h [1]: 9.1 ng/mL
- concentration at 1 h [1]: 4.9 ng/mL
- concentration at 2 h [1]: 0 ng/mL

SMILES: CC1COCCN1S(=O)(=O)c1ccccc1NC(=O)c1ccc(F)cc1 (stereo not shown) [Compound 128]
- activation at 1 µM (Human MSCs): > 50%
- concentration at 0 h [1]: 7280 ng/mL
- concentration at 0.5 h [1]: 2940 ng/mL
- concentration at 1 h [1]: 1360 ng/mL
- concentration at 2 h [1]: 546 ng/mL

SMILES: CNS(=O)(=O)c1ccc(N2Cc3ccccc3C2=O)cc1 [Compound 27]
- activation at 1 µM (Human MSCs): > 50%
- concentration at 0 h [1]: 592 ng/mL
- concentration at 0.5 h [1]: 35.4 ng/mL
- concentration at 1 h [1]: 6.3 ng/mL
- concentration at 2 h [1]: 2.5 ng/mL

SMILES: CS(=O)(=O)c1ccc(C(=O)Nc2ccccc2S(=O)(=O)N2CCOCC2)cc1 [Compound 113]
- activation at 1 µM (Human MSCs): > 50%
- concentration at 0 h [1]: 566 ng/mL
- concentration at 0.5 h [1]: 25.3 ng/mL
- concentration at 1 h [1]: 4.2 ng/mL
- concentration at 2 h [1]: 0 ng/mL

SMILES: N#Cc1ccc(C(=O)Nc2ccccc2S(=O)(=O)N2CCOCC2)cc1 [Compound 62]
- activation at 1 µM (Human MSCs): > 50%
- concentration at 0 h [1]: 411 ng/mL
- concentration at 0.5 h [1]: 109 ng/mL
- concentration at 1 h [1]: 52.6 ng/mL
- concentration at 2 h [1]: 15.7 ng/mL

SMILES: COCCc1ccc(NC(=O)c2ccccc2NS(=O)(=O)c2ccccc2)cc1 [Compound 156]
- activation at 1 µM (Human MSCs): > 50%
- concentration at 0 h [1]: 109 ng/mL
- concentration at 0.5 h [1]: 3.5 ng/mL
- concentration at 1 h [1]: 0 ng/mL
- concentration at 2 h [1]: 0 ng/mL

SMILES: CN(Cc1cccc(NC(=O)c2ccccc2C(=O)O)c1)S(C)(=O)=O [Compound 73]
- activation at 1 µM (Human MSCs): > 50%
- concentration at 0 h [1]: 587 ng/mL
- concentration at 0.5 h [1]: 28.5 ng/mL
- concentration at 1 h [1]: 9.41 ng/mL
- concentration at 2 h [1]: 2.6 ng/mL

SMILES: CC(=O)CCc1cccc(NC(=O)c2ccccc2C(=O)O)c1 [Compound 145]
- activation at 1 µM (Human MSCs): 30 to 50%

SMILES: O=C(O)c1ccc(CNC(=O)c2c(Cl)cccc2C(=O)O)cc1 [Compound 100]
- activation at 1 µM (Human MSCs): 30 to 50%

SMILES: CC(=O)Nc1ccc(NC(=O)c2ccccc2C(=O)O)cc1 [Compound 142]
- activation at 1 µM (Human MSCs): 30 to 50%

SMILES: N#Cc1ccc(C(=O)CC2NC(=O)c3ccccc32)cc1 (stereo not shown) [Compound 24]
- activation at 1 µM (Human MSCs): > 50%

SMILES: O=C(O)c1cc(Cl)ccc1C(=O)Nc1ccc(CCCO)cc1 [Compound 184]
- activation at 1 µM (Human MSCs): 30 to 50%

SMILES: O=C(O)c1ccccc1C(=O)Nc1ccccc1OCC(F)(F)F [Compound 83]
- activation at 1 µM (Human MSCs): > 50%

SMILES: COc1cccc(C(=O)O)c1C(=O)NCc1ccc(C(=O)O)cc1 [Compound 104]
- activation at 1 µM (Human MSCs): > 50%

SMILES: CC(C)(CO)c1ccc(NC(=O)c2ccccc2C(=O)O)cc1 [Compound 32]
- activation at 1 µM (Human MSCs): 30 to 50%

SMILES: O=C(O)c1ccccc1C(=O)Nc1ccc2c(c1)OCO2 [Compound 65]
- activation at 1 µM (Human MSCs): > 50%

SMILES: Cc1cccc(C(=O)Nc2ccc(CCCO)cc2)c1C(=O)O [Compound 189]
- activation at 1 µM (Human MSCs): > 50%

SMILES: CC(=O)N(C)Cc1cccc(NC(=O)c2ccccc2C(=O)O)c1 [Compound 50]
- activation at 1 µM (Human MSCs): 30 to 50%

SMILES: Cc1cc(NC(=O)c2ccccc2C(=O)O)ccn1 [Compound 66]
- activation at 1 µM (Human MSCs): 30 to 50%

SMILES: CN(c1ccccc1C(=O)Nc1ccc(C#N)cc1)S(C)(=O)=O [Compound 78]
- activation at 1 µM (Human MSCs): 30 to 50%

SMILES: Cc1ccc(NC(=O)c2ccccc2C(=O)O)c(C#N)c1 [Compound 13]
- activation at 1 µM (Human MSCs): 30 to 50%

SMILES: COC(=O)c1ccccc1NC(=O)Nc1cccc(C(F)(F)F)c1 [Compound 195]
- activation at 1 µM (Human MSCs): 30 to 50%

SMILES: N#Cc1cc(NC(=O)c2ccccc2C(=O)O)ccc1F [Compound 36]
- activation at 1 µM (Human MSCs): 30 to 50%

SMILES: O=C(CC1OC(=O)c2ccccc21)c1ccccc1Cl (stereo not shown) [Compound 41]
- activation at 1 µM (Human MSCs): > 50%

SMILES: N#Cc1ccc(NC(=O)c2ccccc2-c2ccc(C(=O)O)cc2)cc1 [Compound 60]
- activation at 1 µM (Human MSCs): > 50%

SMILES: CS(=O)(=O)Nc1ccccc1C(=O)Nc1ccc(CC#N)cc1 [Compound 45]
- activation at 1 µM (Human MSCs): 30 to 50%

SMILES: CC(=O)c1ccc(F)c(NC(=O)c2ccccc2C(=O)O)c1 [Compound 30]
- activation at 1 µM (Human MSCs): 30 to 50%

SMILES: COc1ccc(NC(=O)c2ccccc2C(=O)O)cc1C#N [Compound 7]
- activation at 1 µM (Human MSCs): > 50%

SMILES: O=C(O)c1ccc(Cl)cc1C(=O)Nc1ccc(CCCO)cc1 [Compound 187]
- activation at 1 µM (Human MSCs): 30 to 50%

SMILES: O=C(O)c1ccccc1C(=O)Nc1cccc(OC(F)(F)F)c1 [Compound 19]
- activation at 1 µM (Human MSCs): > 50%

SMILES: O=C(Nc1ccccc1)Nc1ccccc1C(=O)O [Compound 203]
- activation at 1 µM (Human MSCs): 30 to 50%

SMILES: COCCc1ccc(NC(=O)c2ccccc2NS(C)(=O)=O)cc1 [Compound 117]
- activation at 1 µM (Human MSCs): > 50%
- concentration at 0 h [1]: 926 ng/mL
- concentration at 0.5 h [1]: 50.6 ng/mL
- concentration at 1 h [1]: 4.4 ng/mL
- concentration at 2 h [1]: 0 ng/mL

SMILES: COC(=O)c1ccccc1NC(=O)Nc1ccccc1C(F)(F)F [Compound 194]
- activation at 1 µM (Human MSCs): 30 to 50%

SMILES: O=C(Nc1ccccc1S(=O)(=O)N1CCOCC1)c1ccccc1F [Compound 118]
- activation at 1 µM (Human MSCs): 30 to 50%

SMILES: CN(CCO)S(=O)(=O)c1ccccc1NC(=O)c1ccc(F)cc1 [Compound 125]
- activation at 1 µM (Human MSCs): 30 to 50%

SMILES: CON=C(C)c1cccc(NC(=O)c2ccccc2C(=O)O)c1 [Compound 59]
- activation at 1 µM (Human MSCs): 30 to 50%

SMILES: N#Cc1cc(CNC(=O)c2ccccc2C(=O)O)ccc1C(=O)O [Compound 155]
- activation at 1 µM (Human MSCs): > 50%

SMILES: N#Cc1ccc(Cl)c(NC(=O)c2ccccc2C(=O)O)c1 [Compound 1]
- activation at 1 µM (Human MSCs): 30 to 50%

SMILES: COc1ccc(OC)c(NC(=O)c2ccccc2C(=O)O)c1 [Compound 87]
- activation at 1 µM (Human MSCs): 30 to 50%

SMILES: CC(=O)c1cccc(C(=O)Nc2ccccc2S(=O)(=O)N2CCOCC2)c1 [Compound 122]
- activation at 1 µM (Human MSCs): > 50%

SMILES: O=C(O)c1ccc(CNC(=O)c2ccccc2C(=O)O)c(Cl)c1 [Compound 96]
- activation at 1 µM (Human MSCs): 30 to 50%

SMILES: O=C(O)c1ccccc1C(=O)NCc1cc(C(F)(F)F)cc(C(F)(F)F)c1 [Compound 69]
- activation at 1 µM (Human MSCs): 30 to 50%

SMILES: O=C(O)c1ccccc1C(=O)Nc1ccon1 [Compound 80]
- activation at 1 µM (Human MSCs): 30 to 50%

SMILES: COC(=O)c1ccccc1NC(=O)Nc1cccc(C#N)c1 [Compound 202]
- activation at 1 µM (Human MSCs): > 50%

SMILES: CC(=O)c1cc(NC(=O)c2ccccc2C(=O)O)ccc1F [Compound 31]
- activation at 1 µM (Human MSCs): 30 to 50%

SMILES: CC(C(=O)c1ccc(C#N)cc1)C1OC(=O)c2ccccc21 (stereo not shown) [Compound 23]
- activation at 1 µM (Human MSCs): > 50%

SMILES: CS(=O)(=O)c1cccc(NC(=O)c2ccccc2C(=O)O)c1 [Compound 38]
- activation at 1 µM (Human MSCs): 30 to 50%

SMILES: Cc1ccc(NC(=O)c2ccccc2C(=O)O)c(F)c1 [Compound 85]
- activation at 1 µM (Human MSCs): 30 to 50%

SMILES: N#Cc1ccccc1NC(=O)c1ccccc1C(=O)O [Compound 70]
- activation at 1 µM (Human MSCs): > 50%

SMILES: O=C(O)c1ccccc1C(=O)Nc1ccc(Cl)cc1C(F)(F)F [Compound 11]
- activation at 1 µM (Human MSCs): 30 to 50%

SMILES: O=C(O)c1ccc(CNC(=O)c2cccc(Cl)c2C(=O)O)cc1 [Compound 99]
- activation at 1 µM (Human MSCs): 30 to 50%

SMILES: O=C(Nc1ccc(CCCO)cc1)c1cccc(Cl)c1C(=O)O [Compound 185]
- activation at 1 µM (Human MSCs): 30 to 50%
